In patent publication US20050048508A1, “Trehalose receptor and method for detecting trehalose with the same” (KABUSHIKI KAISHA HAYASHIBARA SEIBUTSU KAGAKU KENKYUJO, priority 2002, published 2005):

Biological target: T1, T1R2 with G protein α-subunits (α15 and α16/Z chimeric protein) (Mus musculus, UniProt Q925I4, E350G/G527D/P352R/R175Q)
T1 construct: expressed in transfected cells; host or cells: 293 cells, RCB 1637 (human embryonic kidney)
T1 sequence (Q925I4 20-843 R175Q/E350G/P352R/G527D): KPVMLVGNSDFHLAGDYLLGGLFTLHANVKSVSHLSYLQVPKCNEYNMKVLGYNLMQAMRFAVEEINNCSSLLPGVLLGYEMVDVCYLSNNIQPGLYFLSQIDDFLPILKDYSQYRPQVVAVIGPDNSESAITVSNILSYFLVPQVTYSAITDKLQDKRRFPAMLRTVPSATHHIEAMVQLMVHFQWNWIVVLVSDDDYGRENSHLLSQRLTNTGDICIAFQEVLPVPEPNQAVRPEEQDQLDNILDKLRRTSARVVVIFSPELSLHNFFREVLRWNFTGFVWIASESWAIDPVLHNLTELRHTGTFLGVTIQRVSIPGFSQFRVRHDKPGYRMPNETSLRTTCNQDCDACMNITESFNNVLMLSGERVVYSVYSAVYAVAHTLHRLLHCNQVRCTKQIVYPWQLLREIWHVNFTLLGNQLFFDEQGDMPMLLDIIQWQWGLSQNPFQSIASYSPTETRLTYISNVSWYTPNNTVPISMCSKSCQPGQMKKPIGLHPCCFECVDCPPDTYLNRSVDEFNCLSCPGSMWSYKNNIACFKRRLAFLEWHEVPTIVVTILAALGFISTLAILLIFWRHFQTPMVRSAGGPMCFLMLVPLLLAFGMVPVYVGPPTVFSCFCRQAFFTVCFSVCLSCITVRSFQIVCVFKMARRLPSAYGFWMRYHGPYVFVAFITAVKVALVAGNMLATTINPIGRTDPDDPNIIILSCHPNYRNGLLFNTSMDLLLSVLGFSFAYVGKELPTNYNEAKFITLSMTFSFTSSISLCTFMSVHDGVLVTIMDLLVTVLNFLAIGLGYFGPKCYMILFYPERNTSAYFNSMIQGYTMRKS
Test: Intracellular calcium ion assay, 293 cells coexpressing G protein α-subunits and T1R2
Format: cell-based
Settings: 293 cells: T1R2 + G protein α-subunits; 0.67 ml of 1 M saccharide solution added to 2 ml cell suspension; FLUO-4 AM
Description: The coexpression vector for the G protein α-subunit α15 and the G protein α16/Z chimeric protein (hereinafter designated as “G protein α-subunits”) obtained in Example 1-3 was gene transferred to 293 cells, RCB 1637, a human embryonic kidney cell line, available from the Riken Bioresource Center, Ibaraki, Japan, by conventional lipofection. The gene transferred cells were suspended in Dulbecco's Modified Eagle's Medium (D-MEM) supplemented with 1 mg/L of “PUROMYCIN”, a trade mane of puromycin commercialized by Edge Biosystems, MD, USA, and 10% (v/v) of fetal calf serum to give a cell density of 2×10^6 cells/ml and cultured in a plastic petri dish for cell culture. […]
The captioned reactivity test was conducted according to a conventional intracellular calcium ion assay: 293 Cells prepared in Example 3, capable of coexpressing the G protein α-subunits and the sweet taste receptor(s), were cultured in a plastic petri dish for cell culture until reaching its confluent phase. […] Two milliliters of the resultant cell suspension was injected into a glass cuvette, commercialized by Hitachi, Ltd., Tokyo, Japan, and analyzed on “HITACHI 650-40”, a fluorescence spectrophotometer commercialized by Hitachi, Ltd., Tokyo, Japan. […]

Row | Compound | Influx of calcium ion
1 | OC[C@H]1O[C@@](CO)(O[C@H]2O[C@H](CO)[C@@H](O)[C@H](O)[C@H]2O)[C@@H](O)[C@@H]1O [Sucrose, reference compound] | Negative
2 | OC[C@H]1O[C@H](O[C@H]2O[C@H](CO)[C@@H](O)[C@H](O)[C@H]2O)[C@H](O)[C@@H](O)[C@@H]1O [Trehalose] | Negative
